Measurements taken from US11427558B1, “Indazoles and azaindazoles as LRRK2 inhibitors” (ESCAPE Bio, Inc., priority 2019, dated 2022).
Each block holds one molecule with its values, some of them ahead of it.

Tests used:
[1] = target: Recombinant wild type LRRK2 protein (Homo sapiens (Human), UniProt Q5S007); experiment: LRRK2 kinase activity, LanthaScreen TR-FRET assay (wild type); assay type: biochemical; settings: LRRKtide 400 nM, 25 μM ATP, 60 min; read-out: LRRK2 WT IC50
How it was run: (§1)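 Recombinant human wild-type or G2019S LRRK2 phosphorylated fluorescein-labelled LRRKtide (ERM-based) with ATP and serially diluted compound for 60 min at room temperature.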

[2] = target: Recombinant G2019S-LRRK2 protein (Homo sapiens (Human), UniProt Q5S007, G2019S); experiment: LRRK2 kinase activity, LanthaScreen TR-FRET assay (G2019S); assay type: biochemical; settings: LRRKtide 400 nM, 25 μM ATP, 60 min
How it was run: as §1

Recombinant G2019S-LRRK2 protein, sequence (Q5S007 whole entry G2019S): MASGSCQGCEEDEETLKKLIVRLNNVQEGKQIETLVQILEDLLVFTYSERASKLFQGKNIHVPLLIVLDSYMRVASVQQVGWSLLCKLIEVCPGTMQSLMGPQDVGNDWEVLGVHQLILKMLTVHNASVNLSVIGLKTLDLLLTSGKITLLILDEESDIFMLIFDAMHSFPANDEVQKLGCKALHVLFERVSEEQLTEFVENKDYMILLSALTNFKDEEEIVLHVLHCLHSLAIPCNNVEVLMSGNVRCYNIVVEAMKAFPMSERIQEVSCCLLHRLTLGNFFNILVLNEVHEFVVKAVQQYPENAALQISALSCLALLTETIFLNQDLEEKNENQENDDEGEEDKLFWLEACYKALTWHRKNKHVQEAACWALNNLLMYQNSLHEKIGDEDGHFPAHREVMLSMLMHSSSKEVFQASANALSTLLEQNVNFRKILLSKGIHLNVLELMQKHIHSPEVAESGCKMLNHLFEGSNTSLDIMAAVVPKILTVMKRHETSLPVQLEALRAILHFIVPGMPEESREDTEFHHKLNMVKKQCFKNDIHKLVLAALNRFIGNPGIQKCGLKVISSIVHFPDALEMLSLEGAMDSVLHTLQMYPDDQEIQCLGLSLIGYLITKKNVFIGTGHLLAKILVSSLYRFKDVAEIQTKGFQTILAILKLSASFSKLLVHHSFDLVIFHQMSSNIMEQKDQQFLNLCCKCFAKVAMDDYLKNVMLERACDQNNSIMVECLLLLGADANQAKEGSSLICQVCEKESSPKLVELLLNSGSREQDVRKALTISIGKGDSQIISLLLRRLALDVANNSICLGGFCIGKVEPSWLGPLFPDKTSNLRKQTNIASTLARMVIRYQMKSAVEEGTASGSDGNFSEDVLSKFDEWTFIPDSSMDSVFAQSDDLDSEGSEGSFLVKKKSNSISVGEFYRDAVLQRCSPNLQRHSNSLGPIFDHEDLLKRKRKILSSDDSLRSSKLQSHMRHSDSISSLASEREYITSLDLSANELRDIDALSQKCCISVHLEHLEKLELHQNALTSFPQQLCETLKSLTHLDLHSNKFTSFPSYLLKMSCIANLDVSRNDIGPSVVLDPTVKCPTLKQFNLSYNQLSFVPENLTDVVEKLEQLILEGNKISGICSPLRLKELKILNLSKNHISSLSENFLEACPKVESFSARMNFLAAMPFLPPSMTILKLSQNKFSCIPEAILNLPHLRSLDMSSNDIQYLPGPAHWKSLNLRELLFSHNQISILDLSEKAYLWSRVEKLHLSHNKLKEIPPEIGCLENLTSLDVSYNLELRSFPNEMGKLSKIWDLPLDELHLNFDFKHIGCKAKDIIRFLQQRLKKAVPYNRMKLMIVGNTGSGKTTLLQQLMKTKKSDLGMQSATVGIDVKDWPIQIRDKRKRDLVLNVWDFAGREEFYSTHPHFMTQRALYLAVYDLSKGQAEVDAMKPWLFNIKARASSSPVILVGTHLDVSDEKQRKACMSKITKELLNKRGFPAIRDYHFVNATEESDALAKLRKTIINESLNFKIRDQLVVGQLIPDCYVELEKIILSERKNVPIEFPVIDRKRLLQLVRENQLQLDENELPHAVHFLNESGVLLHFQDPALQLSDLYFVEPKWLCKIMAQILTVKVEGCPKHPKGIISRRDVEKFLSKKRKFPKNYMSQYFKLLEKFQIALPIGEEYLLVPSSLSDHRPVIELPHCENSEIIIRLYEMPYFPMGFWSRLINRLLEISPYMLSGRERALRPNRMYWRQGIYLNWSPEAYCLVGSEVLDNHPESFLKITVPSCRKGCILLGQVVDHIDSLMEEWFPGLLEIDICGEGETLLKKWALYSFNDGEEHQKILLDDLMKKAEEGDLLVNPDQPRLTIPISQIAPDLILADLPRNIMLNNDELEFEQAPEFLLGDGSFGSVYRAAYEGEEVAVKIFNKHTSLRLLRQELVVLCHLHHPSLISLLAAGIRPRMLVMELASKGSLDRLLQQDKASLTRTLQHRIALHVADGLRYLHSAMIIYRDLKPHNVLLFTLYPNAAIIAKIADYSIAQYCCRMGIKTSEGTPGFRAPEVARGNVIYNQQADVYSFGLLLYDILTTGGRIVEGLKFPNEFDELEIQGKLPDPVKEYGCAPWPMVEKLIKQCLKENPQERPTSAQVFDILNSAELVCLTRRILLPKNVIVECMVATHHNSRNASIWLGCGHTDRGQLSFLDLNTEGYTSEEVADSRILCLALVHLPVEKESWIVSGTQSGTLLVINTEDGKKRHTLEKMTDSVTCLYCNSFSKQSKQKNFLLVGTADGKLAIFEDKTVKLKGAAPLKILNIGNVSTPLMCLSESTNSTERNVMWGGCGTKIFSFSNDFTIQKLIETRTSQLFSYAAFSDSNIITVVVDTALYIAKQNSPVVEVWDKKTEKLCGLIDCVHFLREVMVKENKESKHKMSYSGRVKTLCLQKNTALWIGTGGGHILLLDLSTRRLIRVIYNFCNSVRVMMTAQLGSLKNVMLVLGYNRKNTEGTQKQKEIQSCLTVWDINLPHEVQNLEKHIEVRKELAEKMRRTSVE
Recombinant wild type LRRK2 protein, sequence (Q5S007 whole entry): as the sequence (Q5S007 whole entry G2019S) above, with S2019G counted along it

SMILES: CCOc1cc(-c2n[nH]c3ccc(NC(=O)c4ncc(C#N)c(C)c4C)cc23)ccn1 [Example 205, 5-Cyano-N-(3-(2-ethoxypyridin-4-yl)-1H-indazol-5-yl)-3,4-dimethylpicolinamide]
IC50 [1]: < 100 nM
IC50 [2]: < 100 nM

SMILES: N#Cc1cnc(C(=O)Nc2ccc3[nH]nc(-c4cnco4)c3c2)c2c1CCC2 [Example 206, 4-Cyano-N-(3-(oxazol-5-yl)-1H-indazol-5-yl)-6,7-dihydro-5H-cyclopenta[c]pyridine-1-carboxamide]
IC50 [1]: 1000 to 10000 nM
IC50 [2]: < 100 nM

IC50 [1]: < 100 nM
IC50 [2]: < 100 nM
SMILES: Cc1cnc(-c2n[nH]c3ccc(NC(=O)c4ncc(C#N)c(C)c4C)cc23)o1 [Example 207, 5-Cyano-3,4-dimethyl-N-(3-(5-methyloxazol-2-yl)-1H-indazol-5-yl)picolinamide]

SMILES: COc1cc(C#N)cc(C)c1C(=O)Nc1ccc2[nH]nc(-c3cnco3)c2c1 [Example 208, 4-Cyano-2-methoxy-6-methyl-N-(3-(oxazol-5-yl)-1H-indazol-5-yl)benzamide]
IC50 [1]: < 100 nM
IC50 [2]: < 100 nM

SMILES: N#Cc1cccc(C(=O)Nc2ccc3[nH]nc(-c4cnco4)c3c2)c1Cl [Example 209, 2-chloro-3-cyano-N-(3-(oxazol-5-yl)-1H-indazol-5-yl)benzamide]
IC50 [1]: < 100 nM
IC50 [2]: < 100 nM

SMILES: Cc1nc(C(=O)Nc2ccc3[nH]nc(-c4cnoc4)c3c2)c(C)c(C)c1C#N [Example 210, 5-Cyano-N-(3-(isoxazol-4-yl)-1H-indazol-5-yl)-3,4,6-trimethylpicolinamide]
IC50 [1]: < 100 nM
IC50 [2]: < 100 nM

SMILES: COc1c(C#N)cnc(C(=O)Nc2ccc3[nH]nc(-c4cnco4)c3c2)c1C [Example 211, 5-Cyano-4-methoxy-3-methyl-N-(3-(oxazol-5-yl)-1H-indazol-5-yl)picolinamide]
IC50 [1]: < 100 nM
IC50 [2]: < 100 nM

SMILES: N#Cc1cccc(C(=O)Nc2ccc3[nH]nc(-c4cnco4)c3c2)c1OC(F)(F)F [Example 212, 3-Cyano-N-(3-(oxazol-5-yl)-1H-indazol-5-yl)-2-(trifluoromethoxy)benzamide]
IC50 [1]: < 100 nM
IC50 [2]: < 100 nM

SMILES: Cc1c(C(=O)Nc2ccc3[nH]nc(-c4cnco4)c3c2)cc(C#N)c(=O)n1C [Example 213, 5-Cyano-1,2-dimethyl-N-(3-(oxazol-5-yl)-1H-indazol-5-yl)-6-oxo-1,6-dihydropyridine-3-carboxamide]
IC50 [1]: < 100 nM
IC50 [2]: < 100 nM

SMILES: C=C(C)c1c(C#N)cccc1C(=O)Nc1ccc2[nH]nc(-c3cnco3)c2c1 [Example 214, 3-Cyano-N-(3-(oxazol-5-yl)-1H-indazol-5-yl)-2-(prop-1-en-2-yl)benzamide]
IC50 [1]: < 100 nM
IC50 [2]: < 100 nM

SMILES: Cc1c(C#N)cnc(C(=O)Nc2ccc3[nH]nc(-c4cnn(C5CCN(C)CC5)c4)c3c2)c1C [Example 215, 5-Cyano-3,4-dimethyl-N-(3-(1-(1-methylpiperidin-4-yl)-1H-pyrazol-4-yl)-1H-indazol-5-yl)picolinamide]
IC50 [1]: < 100 nM
IC50 [2]: < 100 nM

SMILES: Cc1c(C(=O)Nc2ccc3[nH]nc(-c4cnoc4)c3c2)nc(Cl)c(C#N)c1C [Example 216, 6-Chloro-5-cyano-N-(3-(isoxazol-4-yl)-1H-indazol-5-yl)-3,4-dimethylpicolinamide]
IC50 [1]: < 100 nM
IC50 [2]: < 100 nM

SMILES: Cc1c(C#N)cnc(C(=O)Nc2ccc3[nH]nc(-c4cnn(C(C)C)c4)c3c2)c1C [Example 217, 5-Cyano-N-(3-(1-isopropyl-1H-pyrazol-4-yl)-1H-indazol-5-yl)-3,4-dimethylpicolinamide]
IC50 [1]: < 100 nM
IC50 [2]: < 100 nM

SMILES: N#Cc1cnc(C(=O)Nc2ccc3[nH]nc(-c4cnoc4)c3c2)c2c1CCC2 [Example 218, 4-cyano-N-(3-(isoxazol-4-yl)-1H-indazol-5-yl)-6,7-dihydro-5H-cyclopenta[c]pyridine-1-carboxamide]
IC50 [1]: 1000 to 10000 nM
IC50 [2]: < 100 nM

SMILES: COc1cc(-c2n[nH]c3ccc(NC(=O)c4ncc(C#N)c(C)c4C)cc23)cc(C)n1 [Example 219, 5-Cyano-N-(3-(2-methoxy-6-methylpyridin-4-yl)-1H-indazol-5-yl)-3,4-dimethylpicolinamide]
IC50 [1]: < 100 nM
IC50 [2]: < 100 nM

SMILES: N#Cc1cccc(C(=O)Nc2ccc3[nH]nc(-c4cnoc4)c3c2)c1Cl [Example 220, 2-Chloro-3-cyano-N-(3-(isoxazol-4-yl)-1H-indazol-5-yl)benzamide]
IC50 [1]: < 100 nM
IC50 [2]: < 100 nM

SMILES: Cc1c(C#N)cnc(C(=O)Nc2ccc3[nH]nc(-c4cnn(C5COC5)c4)c3c2)c1C [Example 221, 5-Cyano-3,4-dimethyl-N-(3-(1-(oxetan-3-yl)-1H-pyrazol-4-yl)-1H-indazol-5-yl)picolinamide]
IC50 [1]: < 100 nM
IC50 [2]: < 100 nM

SMILES: Cc1nc(C(=O)Nc2ccc3[nH]nc(-c4cncs4)c3c2)c(C)c(C)c1C#N [Example 222, 5-Cyano-3,4,6-trimethyl-N-(3-(thiazol-5-yl)-1H-indazol-5-yl)picolinamide]
IC50 [1]: < 100 nM
IC50 [2]: < 100 nM

SMILES: Cc1c(C#N)cnc(C(=O)Nc2ccc3[nH]nc(C4CC4)c3c2)c1C [Example 223, 5-Cyano-N-(3-cyclopropyl-1H-indazol-5-yl)-3,4-dimethylpicolinamide]
IC50 [1]: 1000 to 10000 nM
IC50 [2]: < 100 nM

SMILES: Cn1cc(C(=O)Nc2ccc3[nH]nc(-c4cnco4)c3c2)cc(C#N)c1=O [Example 224, 5-cyano-1-methyl-N-(3-(oxazol-5-yl)-1H-indazol-5-yl)-6-oxo-1,6-dihydropyridine-3-carboxamide]
IC50 [1]: < 100 nM
IC50 [2]: < 100 nM

SMILES: CC(C)c1c(C#N)cccc1C(=O)Nc1ccc2[nH]nc(-c3cnco3)c2c1 [Example 225, 3-Cyano-2-isopropyl-N-(3-(oxazol-5-yl)-1H-indazol-5-yl)benzamide]
IC50 [1]: < 100 nM
IC50 [2]: < 100 nM

SMILES: COc1c(C#N)cnc(C(=O)Nc2ccc3[nH]nc(-c4cnoc4)c3c2)c1C [Example 226, 5-Cyano-N-(3-(isoxazol-4-yl)-1H-indazol-5-yl)-4-methoxy-3-methylpicolinamide]
IC50 [1]: < 100 nM
IC50 [2]: < 100 nM

SMILES: Cc1c(C#N)cnc(C(=O)Nc2ccc3[nH]nc(-c4cncs4)c3c2)c1C [Example 227, 5-Cyano-3,4-dimethyl-N-(3-(thiazol-5-yl)-1H-indazol-5-yl)picolinamide]
IC50 [1]: < 100 nM
IC50 [2]: < 100 nM

SMILES: COc1c(C#N)ccnc1C(=O)Nc1ccc2[nH]nc(-c3cnoc3)c2c1 [Example 228, 4-Cyano-N-(3-(isoxazol-4-yl)-1H-indazol-5-yl)-3-methoxypicolinamide]
IC50 [1]: 100 to 1000 nM
IC50 [2]: < 100 nM

SMILES: Cc1cc(-c2n[nH]c3ccc(NC(=O)c4ncc(C#N)c(C)c4C)cc23)on1 [Example 229, 5-Cyano-3,4-dimethyl-N-(3-(3-methylisoxazol-5-yl)-1H-indazol-5-yl)picolinamide]
IC50 [1]: < 100 nM
IC50 [2]: < 100 nM

SMILES: Cc1c(C#N)cnc(C(=O)Nc2ccc3[nH]nc(-c4ccncn4)c3c2)c1C [Example 230, 5-Cyano-3,4-dimethyl-N-(3-(pyrimidin-4-yl)-1H-indazol-5-yl)picolinamide]
IC50 [1]: 100 to 1000 nM
IC50 [2]: < 100 nM

SMILES: CCc1c(C#N)ccc(F)c1C(=O)Nc1ccc2[nH]nc(-c3cnco3)c2c1 [Example 231, 3-Cyano-2-ethyl-6-fluoro-N-(3-(oxazol-5-yl)-1H-indazol-5-yl)benzamide]
IC50 [1]: < 100 nM
IC50 [2]: < 100 nM

SMILES: CCc1c(C(=O)Nc2ccc3[nH]nc(-c4cnco4)c3c2)ccnc1C#N [Example 232, 2-Cyano-3-ethyl-N-(3-(oxazol-5-yl)-1H-indazol-5-yl)isonicotinamide]
IC50 [1]: < 100 nM
IC50 [2]: < 100 nM

SMILES: Cc1c(C#N)cnc(C(=O)Nc2ccc3[nH]nc(/C=C/C4CC4)c3c2)c1C [Example 233, (E)-5-Cyano-N-(3-(2-cyclopropylvinyl)-1H-indazol-5-yl)-3,4-dimethylpicolinamide]
IC50 [1]: < 100 nM
IC50 [2]: < 100 nM

SMILES: COc1c(C#N)ccc(C)c1C(=O)Nc1ccc2[nH]nc(-c3cnco3)c2c1 [Example 234, 3-Cyano-2-methoxy-6-methyl-N-(3-(oxazol-5-yl)-1H-indazol-5-yl)benzamide]
IC50 [1]: < 100 nM
IC50 [2]: < 100 nM

SMILES: Cc1cc(-c2n[nH]c3ccc(NC(=O)c4ncc(C#N)cc4C)cc23)on1 [Example 235, 5-Cyano-3-methyl-N-(3-(3-methylisoxazol-5-yl)-1H-indazol-5-yl)picolinamide]
IC50 [1]: < 100 nM
IC50 [2]: < 100 nM

SMILES: Cc1ccc(C#N)c(F)c1C(=O)Nc1ccc2[nH]nc(-c3cnoc3)c2c1 [Example 236, 3-Cyano-2-fluoro-N-(3-(isoxazol-4-yl)-1H-indazol-5-yl)-6-methylbenzamide]
IC50 [1]: < 100 nM
IC50 [2]: < 100 nM

SMILES: Cc1nccc(-c2n[nH]c3ccc(NC(=O)c4ncc(C#N)c(C)c4C)cc23)n1 [Example 237, 5-Cyano-3,4-dimethyl-N-(3-(2-methylpyrimidin-4-yl)-1H-indazol-5-yl)picolinamide]
IC50 [1]: < 100 nM
IC50 [2]: < 100 nM

SMILES: Cc1c(C#N)cnc(C(=O)Nc2cc3c(-c4cnco4)n[nH]c3cn2)c1C [Example 238, 5-Cyano-3,4-dimethyl-N-(3-(oxazol-5-yl)-1H-pyrazolo[3,4-c]pyridin-5-yl)picolinamide]
IC50 [1]: 100 to 1000 nM
IC50 [2]: < 100 nM

SMILES: Cc1c(C#N)nn(C)c1C(=O)Nc1ccc2[nH]nc(-c3cnco3)c2c1 [Example 239, 3-Cyano-1,4-dimethyl-N-(3-(oxazol-5-yl)-1H-indazol-5-yl)-1H-pyrazole-5-carboxamide]
IC50 [1]: < 100 nM
IC50 [2]: 100 to 1000 nM

SMILES: Cc1c(C#N)cnc(C(=O)Nc2ccc3[nH]nc(-c4cn(C)nn4)c3c2)c1C [Example 240, 5-Cyano-3,4-dimethyl-N-(3-(1-methyl-1H-1,2,3-triazol-4-yl)-1H-indazol-5-yl)picolinamide]
IC50 [1]: 100 to 1000 nM
IC50 [2]: < 100 nM

IC50 [1]: 100 to 1000 nM
IC50 [2]: 100 to 1000 nM
SMILES: Cc1cc(C#N)cnc1C(=O)Nc1ccc2[nH]nc(-c3cn(C)nn3)c2c1 [Example 241, 5-Cyano-3-methyl-N-(3-(1-methyl-1H-1,2,3-triazol-4-yl)-1H-indazol-5-yl)picolinamide]
